Measured values published in patent US7282512B2, “Cycloalkyl ketoamides derivatives useful as cathepsin K inhibitors” (SmithKline Beecham Corporation, priority 2002, dated 2007).

What was measured:
human cathepsin K = molecular target: T1, human cathepsin K (Homo sapiens, UniProt P43235); assay: cathepsin K inhibition assay, fluorogenic substrate Cbz-Phe-Arg-AMC, progress curve method; type: biochemical; details: Table 1; human recombinant enzyme, pH 5.5, 30° C., 10 μM substrate; read-out: hcatK Ki
T1 construct: The proform of cathepsin K was converted to mature cathepsin K by brief exposure to pH 4; made in house; host or cells: baculovirus; Trichoplusia ni High Five cells (virus raised in Sf-9)
T1 sequence (P43235 115-329): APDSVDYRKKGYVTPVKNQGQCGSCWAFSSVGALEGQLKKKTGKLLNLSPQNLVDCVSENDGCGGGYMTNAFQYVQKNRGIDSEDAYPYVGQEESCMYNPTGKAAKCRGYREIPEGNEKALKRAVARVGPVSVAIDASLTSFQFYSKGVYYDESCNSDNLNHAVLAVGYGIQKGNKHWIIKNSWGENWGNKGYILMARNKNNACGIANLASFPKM
Protocol: All assays for cathepsin K were carried out with human and rat recombinant enzyme. Assays for cathepsins S & V were also carried out with human recombinant enzyme. Assays for human cathepsins B, H, and L were carried out with enzyme, purchased from Athens Research and Technology, Inc., prepared from human liver tissue. […] A stock substrate solution of Cbz-Phe-Arg-AMC was prepared at a concentration of 50 mM in dimethyl sulfoxide. This substrate was diluted into the assay for a final substrate concentration of 10 μM in the rat cathepsin K, human cathepsin K, and human cathepsin B assays; a final substrate concentration of 5 μM in the human cathepsin L assay; and a final substrate concentration of 2 μM in the human cathepsin V assay.
All assays contained 10% dimethyl sulfoxide. […] All assays were conducted at 30° C. Product fluorescence (excitation at 360 nm; emission at 440 nm, (except cathepsin H which used excitation at 340 nm; emission at 420 nm)) was monitored with a PerSeptive Biosystems Cytofluor II fluorescence plate reader. Product progress curves were generated over 2.3 h monitoring the formation of 7-amino-4-methylcoumarin product (or β-naphthalamide for cathepsin H).
Two liters of Spodoptera frugiperda (Sf-9) cells (ATCC) were grown in Grace's Supplemented medium (Life Technologies) supplemented with 2 g/L glucose, 10% fetal bovine serum (HyClone) and 0.1% pluronic F-68 (Life Technologies). […] The cells continued to grow for 72 h post-infection, before the virus was harvested by centrifugation at 1400×g for 30 min.
One and one-half liters of Trichoplusia ni (T. ni) High Five (™) cells [JRH Biosciences, Woodland, Calif. […] Media were separated from cells at a rate of 1 L/min using the Centritech 100 (™) continuous-flow centrifuge (DuPont) operating at 200×g.
Protein Purification: Media (human and rat) were filtered through a Whatman 3 filter, and then loaded onto a 25 mL Poros HS II (26 mm×47 mm) cation exchange column equilibrated in 25 mM sodium acetate at pH 5.5 (equilibration buffer). The column was washed until the absorbance reached the baseline value, and then the protein was eluted with a linear gradient from 0-2 M sodium chloride in the equilibration buffer. Column fractions were analyzed by SDS-PAGE, N-terminal sequencing, and mass spectrometry. Fractions containing the proform of cathepsin K were pooled and frozen at −80° C. The proform was concentrated in an Amicon Centriprep 10 and fractionated with a Superdex 75 column (26 mm×600 mm, Pharmacia) equilibrated in 400 mM sodium chloride, 25 mM sodium acetate at pH 5.5.
Cathepsin K Activation: The proform of cathepsin K was converted to mature cathepsin K by brief exposure to pH 4 in the presence of 5 mM L-cysteine. Typically, 5 mM L-cysteine was added to 10 mL of approximately 1 mg/mL procathepsin K. One mL of this solution was diluted ten-fold into 450 mM sodium acetate at pH 4.0 containing 5 mM L-cysteine. This solution was reacted at 23° C. for 2 min before neutralization with 2 mL 1.8 M sodium acetate at pH 6.0. The neutralized sample was added to the remaining 9 mL of procathepsin K. The mixture was incubated at 4° C. for 2-3 days. The activated cathepsin K was chromatographed on a Poros HS II column as described above.
Potential inhibitors were evaluated using the progress curve method. Assays were carried out in the presence of variable concentrations of test compound. Reactions were initiated by addition of buffered solutions of inhibitor and substrate to enzyme. Data analysis was conducted according to one of two procedures depending on the appearance of the progress curves in the presence of inhibitors. […] Ki values were calculated from IC50 values using equation 2 assuming a competitive model.

Structure (SMILES)	Ki (human cathepsin K) [nM]	melting point [°C]
CCCC[C@H](NC(=O)OCC1(Cc2ccccc2)CCCC1)C(=O)C(=O)N[C@H](C)c1ccccc1 [Example 8, (1-Benzylcyclopentyl)methyl(1S)-1-(oxo{[(1R)-1-phenylethyl]amino}acetyl)pentylcarbamate]	10 to 100	108 to 110
CCCC[C@H](NC(=O)OCC1(CCc2ccccc2)CCC1)C(=O)C(=O)N[C@H](C)c1ccccc1 [Example 6, [1-(2-Phenylethyl)cyclobutyl]methyl(1S)-1-(oxo{[(1R)-1-phenylethyl]amino}acetyl)pentylcarbamate]	10 to 100	86 to 88
CCCC[C@H](NC(=O)OCC1(Cc2ccccc2)CCC1)C(=O)C(=O)N[C@H](C)c1ccccc1 [Example 5, (1-Benzylcyclobutyl)methyl(1S)-1-(oxo{[(1R)-1-phenylethyl]amino}acetyl)pentylcarbamate]	1 to 10	96 to 98
CCCC[C@H](NC(=O)OCC1(COc2ncnc3ccsc23)CCC1)C(=O)C(=O)N[C@H](C)c1ccccc1 [Example 29, {1-[(thieno[3,2-d]pyrimidin-4-yloxy)methyl]cyclobutyl}methyl (1S)-1-(oxo{[(1R)-1-phenylethyl]amino}acetyl)pentylcarbamate]	10 to 100	
CCCC[C@H](NC(=O)OCC1(CCCSc2nccn2C)CCC1)C(=O)C(=O)N[C@H](C)c1ccccc1 [Example 37, (1-{3-[(1-methyl-1H-imidazol-2-yl)sulfanyl]propyl}cyclobutyl)methyl (1S)-1-(oxo{[(1R)-1-phenylethyl]amino}acetyl)pentylcarbamate]	> 1000	
CCCC[C@H](NC(=O)OCC1(COc2nc(-c3ccccc3)ns2)CCC1)C(=O)C(=O)N[C@H](C)c1ccccc1 [Example 26, (1-{[(3-phenyl-1,2,4-thiadiazol-5-yl)oxy]methyl}cyclobutyl)methyl (1S)-1-(oxo{[(1R)-1-phenylethyl]amino}acetyl)pentylcarbamate]	10 to 100	
CCCCC(NC(=O)OCC1(COc2nnc(C)cc2-c2ccccc2)CCC1)C(=O)C(=O)N[C@H](C)c1ccccc1 (stereo in doubt) [Example 32, (1-{[(6-methyl-4-phenylpyridazin-3-yl)oxy]methyl}cyclobutyl)methyl (1R)-1-(oxo{[(1R)-1-phenylethyl]amino}acetyl)pentylcarbamate]	10 to 100	
CN(C)S(=O)(=O)NCCCC[C@H](NC(=O)OCC1(Cc2ccc(F)cc2)CCC1)C(=O)C(=O)NCc1cccnc1 [Example 16, [1-(4-Fluorobenzyl)cyclobutyl]methyl(1S)-5-{[(dimethylamino)sulfonyl]amino}-1-{oxo[(3-pyridinylmethyl)amino]acetyl}pentylcarbamate]	10 to 100	
CCCC[C@H](NC(=O)OCC1(CCSc2nccn2C)CCC1)C(=O)C(=O)N[C@H](C)c1ccccc1 [Example 36, (1-{2-[(1-methyl-1H-imidazol-2-yl)sulfanyl]ethyl}cyclobutyl)methyl (1S)-1-(oxo{[(1R)-1-phenylethyl]amino}acetyl)pentylcarbamate]	> 1000	
CCCC[C@H](NC(=O)OCC1(CCCc2ccccc2)CCC1)C(=O)C(=O)N[C@H](C)c1ccccc1 [Example 7, [1-(3-Phenylpropyl)cyclobutyl]methyl(1S)-1-(oxo{[(1R)-1-phenylethyl]amino}acetyl)pentylcarbamate]	10 to 100	91 to 93
CCCC[C@H](NC(=O)OCC1(Cc2nc(-c3ccccc3)cs2)CCC1)C(=O)C(=O)N[C@H](C)c1ccccc1 [Example 18, {1-[(4-phenyl-1,3-thiazol-2-yl)methyl]cyclobutyl}methyl(1S)-1-(oxo{[(1R)-1-phenylethyl]amino}acetyl)pentylcarbamate]	1 to 10	
CCCC[C@H](NC(=O)OCC1(CSc2ncccn2)CCC1)C(=O)C(=O)N[C@H](C)c1ccccc1 [Example 23, {1-[(2-pyrimidinylsulfanyl)methyl]cyclobutyl}methyl (1S)-1-(oxo{[(1R)-1-phenylethyl]amino}acetyl)pentylcarbamate]	10 to 100	
